These results are taken from PMC8692498, “Synthesis and multifaceted pharmacological activity of novel quinazoline NHE-1 inhibitors” (Scientific Reports, 2021).

Entries after “also recorded” stand apart in the source; their conditions may differ.

Series [1] relates to advanced glycation products from bovine serum albumin and glucose. The series can be described thus: Antiglycating activity (AGE fluorescence, bovine serum albumin and glucose). Type of series: biochemical. Particulars: BSA 1 mg/ml, glucose 0.36 M, 60 °C, 24 hrs; read-out: IC50 of formation of advanced glycation products. How it is done: The glycation reaction was modeled using 1 mg/ml bovine serum albumin (Chemmed, Russia) and 0.36 M glucose (Vekton, Russia) in 50 mM phosphate buffer solution (PBS, pH 7.4) at 60 °C. After 24 hrs, albumin was precipitated using trichloroacetic acid (10% final concentration) and centrifugation (15 000 rpm, 4 min). The supernatant was removed by aspiration, and the residue was dissolved in 50 mM PBS (pH 10.5). Aliquots of 300 µl were transferred to a black flat-bottom 96-well microplate. AGE fluorescence was registered using Infinite M200 Pro (Tecan, Austria) microplate reader at excitation/emission wavelengths of 370/440 nm. Signals were normalized using blank samples containing BSA and the test compound in the appropriate concentration without the glucose. When normalized, the activity is expressed as the AGE fluorescence coefficient, determined by the formula: Flu=10^log10A-log10B-1, where A and B correspond to the absolute fluorescence values of the glucose-containing and mean glucose-free sample.
Activity percentage was calculated using the formula: A%=1-FluSample/FluControl×100%, where Flu(Sample) and Flu(Control) correspond to the normalized fluorescence coefficients of experimental and control samples. Experiments were run in 5 independent replicates.

The next series has as its system rabbit platelets. In words: ADP-induced platelet aggregation assay in rabbit platelet-rich plasma. Particulars: 100 μM, ADP 5 μM. It is filed as cell-based. How it is done: Functional activity of platelets was determined on a two-channel laser analyzer of platelet aggregation "BIOLA-220 LA" (Russia) as described previously. The experiments were carried out on 6 male rabbits weighing 3.5–4 kg. To prepare platelet-rich plasma (PRP) venous blood was taken from the ear marginal vein of a rabbit, stabilized with a 3.8% sodium citrate solution in a ratio of 9:1 and centrifuged for 10 min at 1500 rpm. PRP (300 μL) and a solution of the test compound at a concentration of 100 μM were sequentially introduced into the cell of the aggregometer. The samples were incubated in thermostated cells of the aggregometer at 37 °C for 5 min. To induce aggregation adenosine-5-diphosphoric acid (ADP, Sigma, USA) at a final concentration of 5 μM, was added to the cuvette. Acetylsalicylic acid (Shandong Xinhua Pharmaceutical Co., Ltd., China) was used as a reference drug. Experiments were run in 5 independent replicates.

The next series concerns the target T1, NHE-1 (Oryctolagus cuniculus, UniProt P23791).
T1 construct: endogenous in cells; host or cells: rabbit platelets in platelet-rich plasma (male rabbits)
The series can be described thus: NHE-1 inhibition assay on rabbit platelets (platelet shape change after acidification with sodium propionate, laser aggregometer). Type of series: cell-based. As to conditions: 10 nM, rabbit platelet-rich plasma, decimal commas; read-out: NHE-1 inhibition at 10 nM, m ± SD, n = 6 (%). How it is done: Evaluation of NHE-1 inhibition was carried out on rabbit platelets by the known method[39],[40]. The experiments were carried out on 15 male rabbits weighing 3.0-4.0 kg. Platelet-rich plasma (PRP) was obtained by centrifuging blood with 3.8% sodium citrate (1:10) at 1000 rpm for 12 min (Multi centrifuge CM 6M, Latvia). Platelet shapeshifting due to acidification was followed with a laser aggregometer BIOLA-220 LA (Russia). Test compounds (10 μl, 10 nM final concentration) were added to 200 μl of PRP 5 min in a cuvette before the addition of sodium propionate solution, incubated with constant stirring using a magnetic stirrer (800 rpm, 37 °C). To control samples for NHE-1 activation, a buffer solution containing sodium propionate was added to 200 μL of PRP (600 μL, 135 mM sodium propionate, 20 mM HEPES, 1 mM CaCI2, 1 mM MgCI2, 10 mM glucose; pH 6.7). The change in light transmission at pH 7.4, 37 °C was monitored in a Krebs solution (600 μL, 120 mM NaCl, 4.8 mM KCl, 1.2 mM KH2PO4, 2.5 mM MgSO4, 25 mM NaHCO3, 2.6 mM CaCl2, 5.4 mM glucose; pH 7.4). Test compounds were added to a final concentration of 10 nM to the cuvette into 200 μl of PRP 5 min before adding the sodium propionate solution, incubated with constant stirring using a magnetic stirrer (800 rpm, 37 °C). NHE-1 inhibitors zoniporide, rimeporide, amiloride were used as reference drugs. Assays were run in 6 independent series.

Series [2] relates to primary peritoneal macrophages of C57BL/6J mice. In words: Cytotoxicity study (LDH activity in the medium) in peritoneal macrophages. It is filed as cell-based. Particulars: 100 μM, peritoneal macrophages. How it is done:
(§1) Peritoneal macrophages (PM) were isolated from the peritoneal exudate of 30 male C57bl/6j mice. To accumulate PM, 1 ml of 3% peptone solution was injected intraperitoneally. After 3 days the mice were euthanized by cervical dislocation. Cells of peritoneal exudate were obtained by aseptically washing the abdominal cavity with 5 ml of sterile Hanks’s solution (+ 4-6 °C) without calcium and magnesium ions. The total number and viability of cells were assessed in a Goryaev counting chamber (Russia) with a 0.4% trypan blue staining (Sigma-Aldrich, USA). The cell concentration was adjusted to 1.0×10^6 cells/ml in DMEM (Gibco) supplemented with 2 mM L-glutamine (Gibco), 10% heat-inactivated fetal bovine serum (BioClot, Germany), 100 U/ml penicillin and […] streptomycin (Gibco) and plated 200 μl/well in 96-well transparent plates (SPL Life Sciences Co., Ltd., Korea). It was left for 2 h at 37°C in a humidified atmosphere with 5% CO2, after which the wells were washed to remove non-adherent cells. After 24 hours of incubation, 20 μl of the supernatant was removed and 20 μl of solutions of test compounds were added 30 min before E. coli O127:B8 LPS (100 ng/ml final concentration). Experiments were run in 3 independent replicates.
(§2) The activity of lactate dehydrogenase (LDH) in a cell culture medium served as a marker of membrane permeability and cell death. Aliquotes of supernatants were taken after 24 h of inoculation with test compounds, mixed with 250 μl of […] NADH solution in 54 mM phosphate buffered saline (pH 7.5). Then, 25 μl of a 6.48 mM pyruvate solution was added to the mixture. The optical density was followed at a wavelength of 340 nm for 20 min. Conversion of optical density into cell viability was carried out according to a standard curve (DMSO-treated cells as 100% and 0.01% Triton X-100-treated cells as 0% viable cells).

Series [3] has the same test system. The series can be described thus: Nitric oxide synthesis (nitrite, Griess reagent) in LPS-stimulated peritoneal macrophages. It is filed as cell-based. Particulars: 100 μM. How it is done: as §1
The accumulation of nitrite anion (a stable end product of NO decomposition produced by iNOS) in supernatants was determined using a standard Griess reagent. Briefly, 50 μl of supernatants collected 22 hours after incubation of PM with test and control compounds were mixed with 50 μl of 1% sulfonamide in 2.5% H3PO4 and 50 μl of 0.1% N-(1-naphthyl) ethylenediamine in 2,5% H3PO4. After incubation at 23 °C for 10 min in an orbital shaker, the optical density was determined at a wavelength of 550 nm with a microplate reader Infinite M200 PRO (Tecan, Austria).
(In general: Griess reagent forms a coloured azo dye with nitrite.)

The next series deals with IL-6 secretion. In words: Interleukin-6 secretion (ELISA) from LPS-stimulated peritoneal macrophages. As to conditions: male, C57BL/6J, mouse, primary peritoneal macrophages stimulated with LPS; CC50 versus IC50 of IL-6 secretion; read-out: selectivity of IL-6 inhibition over cytotoxicity. Type of series: cell-based, mice. On the procedure:
as §1
(§3) Cell supernatant was collected and centrifuged at 1000 g for 20 min in a 2-16PK Sigma centrifuge (Germany). The concentration of IL-6 was determined by ELISA using a commercial kit (Cloud-clone ELISA kit) with a microplate reader Infinite M200 PRO (Tecan, Austria).
Background: ELISA stands for enzyme-linked immunosorbent assay.

The test system of series [4] is primary peritoneal macrophages of C57BL/6J mice. The description is as above. It is filed as cell-based. On the procedure:
as §1, §3

The test system of the next series is ICR mice. The series can be described thus: Tail suspension test (antidepressant activity). As to conditions: intragastrically 30 min before test, dose equimolar to 2.6 mg/kg amiloride. It is filed as in vivo. How it is done: The experiment was carried out on 36 male ICR mice weighing 22-25 g, divided into groups of 6 animals each under room lighting (300 lux). […] In experiments, test substances were administered intragastrically 30 min before the start of the test. Experimental groups received test compounds in an equimolar dose to the comparison drug amiloride. Animals of the remaining groups were treated with 2.6 mg/kg amiloride, 10 mg/kg amitriptyline, or 8 mg/kg imipramine. Distilled water was administered to the control group. The time of immobilization of the animals was recorded.

Series [5] can be described thus: Cytotoxicity study (LDH activity in the medium) in peritoneal macrophages. Type of series: cell-based. Particulars: male, C57BL/6J, mouse, primary peritoneal macrophages; murine peritoneal macrophages, LDH. On the procedure: as §1, §2

T1 sequence (P23791 whole entry): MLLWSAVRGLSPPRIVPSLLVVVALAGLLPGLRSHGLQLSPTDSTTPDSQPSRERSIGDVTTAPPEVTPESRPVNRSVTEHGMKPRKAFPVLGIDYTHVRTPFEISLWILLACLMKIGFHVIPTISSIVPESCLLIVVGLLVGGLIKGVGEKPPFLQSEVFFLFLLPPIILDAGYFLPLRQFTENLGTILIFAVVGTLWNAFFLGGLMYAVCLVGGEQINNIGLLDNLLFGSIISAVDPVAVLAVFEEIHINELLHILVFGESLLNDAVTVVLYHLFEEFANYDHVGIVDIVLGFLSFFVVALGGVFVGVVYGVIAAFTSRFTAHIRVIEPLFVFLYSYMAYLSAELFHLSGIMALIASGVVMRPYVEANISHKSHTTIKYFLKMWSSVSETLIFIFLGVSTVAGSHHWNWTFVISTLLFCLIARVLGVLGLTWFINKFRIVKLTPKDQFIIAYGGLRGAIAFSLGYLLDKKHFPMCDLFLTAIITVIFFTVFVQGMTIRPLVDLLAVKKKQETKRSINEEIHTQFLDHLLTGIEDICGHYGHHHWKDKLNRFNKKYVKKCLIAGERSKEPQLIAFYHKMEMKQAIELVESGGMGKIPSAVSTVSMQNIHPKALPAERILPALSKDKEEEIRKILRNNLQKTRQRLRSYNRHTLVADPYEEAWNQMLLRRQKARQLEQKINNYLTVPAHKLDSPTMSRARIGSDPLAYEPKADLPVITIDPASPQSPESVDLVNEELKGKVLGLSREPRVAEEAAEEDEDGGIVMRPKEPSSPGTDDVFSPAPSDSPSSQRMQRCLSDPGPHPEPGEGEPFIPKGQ

In the case of `N=C(N)NN` [aminoguanidine, reference compound], the IC50 in series [1] is 4520 µM.

As usually defined, the inhibition is the change of the read-out against control, counted positive when it falls. With `Nc1nc(Cn2cnc3ccc(Br)cc3c2=O)n[nH]1` [Compound 6b, 3-[(5-Amino-1H-1,2,4-triazol-3-yl)methyl]-6-bromoquinazolin-4(3H)-one], in [1], the IC50 is 506 µM. Also, in the series on rabbit platelets, the “antiplatelet activity versus acetylsalicylic acid” value is recorded as “exceeded the activity of the reference drug, acetylsalicylic acid”. The inhibition at 0.01 µM at NHE-1 came to 25.8%. Also, the “effect on cell viability” value in series [2] is “absence of a statistically significant effect on cell viability”. Besides, the “inhibition of the synthesis of nitric oxide” value in [3] was “statistically significantly inhibit”.

For orientation: melting point means the temperature of the solid-liquid transition. As a reminder, the CC50 is the concentration at which the toxic effect on the cells reaches its halfway point. `Nc1nnc(Cn2c(=O)c3ccccc3n(Cc3ccccc3)c2=O)[nH]1` [Compound 3i, 3-[(5-Amino-4H-1,2,4-triazol-3-yl)methyl]-1-benzylquinazoline-2,4(1H,3H)-dione] came in with a melting point of 262 to 265 °C. For the same compound, the selectivity ratio with IL-6 secretion lay within 4 to 6. For the same compound, the “secretion of interleukin 6” value in series [4] (LPS-stimulated macrophages, screening (Fig. 4)) was “suppressed”. Moreover, the IC50 in [4] (Mus musculus, Peritoneal macrophage, LPS-stimulated murine macrophages, read-out: IC50 of IL-6 synthesis/secretion) came to 24.1 µM. Further, the antidepressant activity entry in the series on ICR mice was “antidepressant activity similar to amiloride; also recorded: antidepressant activity comparable with amiloride”. For the same compound, the inhibition at 0.01 µM on NHE-1 worked out at 12.9%. Also, it took 146 µM to reach half-maximal cytotoxicity in [5] (CC50 at 24 h).
